The IC50 is the concentration at which inhibition is half-maximal.

This is an account of results in patent US20240317780A1, “RADIOPHARMACEUTICAL SOMATOSTATIN RECEPTOR LIGANDS AND PRECURSORS THEREOF” (Technische Universität München, priority 2021, published 2024).

For series [1], the target named is HSA (Homo sapiens, UniProt P02768). Description: HSA binding by RIAC method (gel filtration, apparent molecular weight). The class given is in vitro ADME. To be noted: HSA binding as apparent molecular weight, 700 μM HSA in PBS mobile phase. Here is the method: A gel filtration column Superdex 75 Increase 10/300 GL (GE Healthcare, Uppsala, Sweden) was beforehand calibrated following the producer's recommendations with a commercially available gel filtration calibration kit (GE Healthcare, Buckinghamshire, UK) comprising conalbumin (MW: 75 kDa), ovalbumin (44 kDa), carbonic anhydrase (29 kDa), ribonuclease A (13.7 kDa) and aprotinin (6.5 kDa) as reference proteins of known molecular weight. AMSEC experiments were conducted using a constant flow rate of 0.8 mL/min at rt. A solution of HSA in PBS at physiological concentration (700 μM) was used as the mobile phase. SST2 ligands were labelled as described with molar activities of 10-20 GBq/μmol. Probes of 1.0 MBq of the radioligand were injected directly from the labelling solution. HSA binding was expressed as an apparent molecular weight MW calculated from the retention time of the radioligand using the determined calibration curve.
For evaluation, experimentally determined retention times tR are first converted into elution volumes Ve by multiplying with the flow rate and thereafter converted into partition coefficients Kav following the equation
where V0 is the column void volume (8.027 mL) and Vc is the geometric column volume (24 mL). Using the equation given by the trend line plot of the column calibration
the apparent molecular weight MW is calculated as […]
Background: Size exclusion chromatography separates by hydrodynamic size, large species first.

The target in series [2] is T1, SST2 (Homo sapiens, UniProt P30874).
T1 construct: expressed in transfected cells; host or cells: CHO (Chinese hamster ovary) cells
Briefly: Determination of IC50: competitive binding against [125I]TOC on SST2-transfected CHO cells. To be noted: [125I]TOC reference radioligand, 60 min room temperature.

Series [3] can be described thus: Octanol-water distribution coefficient (logD pH 7.4) of the labeled tracer. The class given is physicochemical. To be noted: n-octanol/PBS pH 7.4, room temperature. A digest of the protocol: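 About 1 MBq tracer partitioned in 1:1 PBS pH 7.4/n-octanol, mixed 3 min at room temperature, centrifuged 15000 g for 5 min. Both layers counted by gamma counter; at least six repeats.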

Sequence of HSA (P02768 25-609): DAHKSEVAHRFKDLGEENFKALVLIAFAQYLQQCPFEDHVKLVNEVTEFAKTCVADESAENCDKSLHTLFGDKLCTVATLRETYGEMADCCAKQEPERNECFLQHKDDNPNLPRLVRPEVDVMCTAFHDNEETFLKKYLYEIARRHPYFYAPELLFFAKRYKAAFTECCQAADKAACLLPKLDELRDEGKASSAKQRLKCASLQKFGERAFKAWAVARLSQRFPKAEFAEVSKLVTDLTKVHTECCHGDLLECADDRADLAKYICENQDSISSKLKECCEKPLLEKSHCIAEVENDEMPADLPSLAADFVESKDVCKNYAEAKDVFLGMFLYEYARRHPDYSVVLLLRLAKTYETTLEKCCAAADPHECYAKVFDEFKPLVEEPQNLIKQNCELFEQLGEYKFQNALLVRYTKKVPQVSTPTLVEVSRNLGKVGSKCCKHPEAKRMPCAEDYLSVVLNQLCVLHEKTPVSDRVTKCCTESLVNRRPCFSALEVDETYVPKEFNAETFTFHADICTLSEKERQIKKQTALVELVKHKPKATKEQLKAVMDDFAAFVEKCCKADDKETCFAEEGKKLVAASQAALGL
T1 sequence (P30874 whole entry, species assumed): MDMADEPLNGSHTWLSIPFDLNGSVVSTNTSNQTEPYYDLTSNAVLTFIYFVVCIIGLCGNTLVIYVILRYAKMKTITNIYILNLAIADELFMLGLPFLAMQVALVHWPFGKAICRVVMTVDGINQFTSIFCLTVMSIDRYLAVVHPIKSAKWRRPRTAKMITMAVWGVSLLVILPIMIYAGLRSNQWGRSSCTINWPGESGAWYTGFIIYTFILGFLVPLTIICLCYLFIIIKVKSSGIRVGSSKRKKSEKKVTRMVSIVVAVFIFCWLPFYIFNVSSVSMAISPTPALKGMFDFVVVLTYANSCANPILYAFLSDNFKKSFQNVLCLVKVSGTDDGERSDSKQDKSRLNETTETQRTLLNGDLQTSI

As to `C[C@@H](O)[C@H](NC(=O)C1CSSCC(NC(=O)C(Cc2ccccc2)NC(=O)CNC(=O)CNC(=O)[C@@H](CCCN)NC(=O)C(CCCN)NC(=O)[C@@H](CNC(=O)CC[C@H](C(=O)O)N2CCN(CC(=O)O)CCN(CC(=O)O)CCN(CC(=O)O)CC2)NC(=O)C(CN)NC(=O)c2ccc([Si](F)(C(C)(C)C)C(C)(C)C)cc2)C(=O)N[C@@H](Cc2ccc(O)cc2)C(=O)NC(Cc2c[nH]c3ccccc23)C(=O)N[C@@H](CCCCN)C(=O)N[C@@H]([C@@H](C)O)C(=O)N1)C(=O)O` (some centres unmarked) (natGa complex, metal not drawn) [[Ga]37], in series [1], the HSA came to 17.60 kDa. For the same molecule, in series [2], the IC50 amounted to 4.66 ± 0.53 nM. For the same molecule, in series [3], the “LogDpH=7.4” value is recorded as −1.92 ± 0.04.
Consider `C[C@@H](O)[C@H](NC(=O)C1CSSCC(NC(=O)C(Cc2ccccc2)NC(=O)CNC(=O)C(CC(=O)O)NC(=O)[C@@H](CC(=O)O)NC(=O)C(CNC(=O)CN2CCN(CC(=O)O)CCN(CC(=O)O)CCN(CC(=O)O)CC2)NC(=O)[C@@H](CN)NC(=O)c2ccc([Si](F)(C(C)(C)C)C(C)(C)C)cc2)C(=O)N[C@@H](Cc2ccc(O)cc2)C(=O)NC(Cc2c[nH]c3ccccc23)C(=O)N[C@@H](CCCCN)C(=O)N[C@@H]([C@@H](C)O)C(=O)N1)C(=O)O` (some centres unmarked) (natGa complex, metal not drawn) [[Ga]39], for which, in series [1], the HSA is recorded as 24.96 kDa. In addition, in series [2], the IC50 is 14.9 ± 1.22 nM. For the same molecule, the “LogDpH=7.4” value in series [3] is on record as −2.20 ± 0.05.
The like results for `C[C@@H](O)[C@H](NC(=O)C1CSSCC(NC(=O)C(Cc2ccccc2)NC(=O)CNC(=O)CNC(=O)CNC(=O)C(CC(=O)O)NC(=O)[C@@H](CC(=O)O)NC(=O)C(CNC(=O)CN2CCN(CC(=O)O)CCN(CC(=O)O)CCN(CC(=O)O)CC2)NC(=O)[C@@H](CN)NC(=O)c2ccc([Si](F)(C(C)(C)C)C(C)(C)C)cc2)C(=O)N[C@@H](Cc2ccc(O)cc2)C(=O)NC(Cc2c[nH]c3ccccc23)C(=O)N[C@@H](CCCCN)C(=O)N[C@@H]([C@@H](C)O)C(=O)N1)C(=O)O` (some centres unmarked) (natGa complex, metal not drawn) [[Ga]40] were, in that order, 19.25 kDa, 3.61 ± 0.29 nM and −2.24 ± 0.03.
Take `C[C@@H](O)[C@H](NC(=O)C1CSSCC(NC(=O)C(Cc2ccccc2)NC(=O)CNC(=O)CNC(=O)[C@@H](CC(N)=O)NC(=O)C(CC(N)=O)NC(=O)[C@@H](CNC(=O)CC[C@H](C(=O)O)N2CCN(CC(=O)O)CCN(CC(=O)O)CCN(CC(=O)O)CC2)NC(=O)C(CN)NC(=O)c2ccc([Si](F)(C(C)(C)C)C(C)(C)C)cc2)C(=O)N[C@@H](Cc2ccc(O)cc2)C(=O)NC(Cc2c[nH]c3ccccc23)C(=O)N[C@@H](CCCCN)C(=O)N[C@@H]([C@@H](C)O)C(=O)N1)C(=O)O` (some centres unmarked) (natGa complex, metal not drawn) [[Ga]41]: the HSA in series [1] came to 15.48 kDa. For the same molecule, in series [2], the IC50 stood at 3.64 ± 0.64 nM. Moreover, the “LogDpH=7.4” value in series [3] is reported as −1.58 ± 0.05.
Take `C[C@@H](O)[C@H](NC(=O)C1CSSCC(NC(=O)C(Cc2ccccc2)NC(=O)CNC(=O)CNC(=O)CNC(=O)C(CC(=O)O)NC(=O)[C@@H](CC(=O)O)NC(=O)C(CNC(=O)CN2CCN(CC(=O)O)CCN(CC(=O)O)CCN(CC(=O)O)CC2)NC(=O)[C@@H](CN)NC(=O)CNC(=O)C[N+](C)(C)Cc2ccc([Si](F)(C(C)(C)C)C(C)(C)C)cc2)C(=O)N[C@@H](Cc2ccc(O)cc2)C(=O)NC(Cc2c[nH]c3ccccc23)C(=O)N[C@@H](CCCCN)C(=O)N[C@@H]([C@@H](C)O)C(=O)N1)C(=O)O` (some centres unmarked) [[Ga]52]: the HSA in series [1] was 7.82 kDa. For the same molecule, the “LogDpH=7.4” value in series [3] was −2.00 ± 0.02.
The like results for `C[C@@H](O)[C@H](NC(=O)C1CSSCC(NC(=O)C(Cc2ccccc2)NC(=O)CNC(=O)CNC(=O)CNC(=O)C(CC(=O)O)NC(=O)[C@@H](CC(=O)O)NC(=O)C(CNC(=O)CN2CCN(CC(=O)O)CCN(CC(=O)O)CCN(CC(=O)O)CC2)NC(=O)[C@@H](CN)NC(=O)CNC(=O)CNC(=O)C[N+](C)(C)Cc2ccc([Si](F)(C(C)(C)C)C(C)(C)C)cc2)C(=O)N[C@@H](Cc2ccc(O)cc2)C(=O)NC(Cc2c[nH]c3ccccc23)C(=O)N[C@@H](CCCCN)C(=O)N[C@@H]([C@@H](C)O)C(=O)N1)C(=O)O` (some centres unmarked) [[Ga]53] were, in that order, 8.48 kDa and −1.96 ± 0.01.
Regarding `C[C@@H](O)[C@H](NC(=O)C1CSSCC(NC(=O)C(Cc2ccccc2)NC(=O)CNC(=O)CNC(=O)[C@@H](CC(=O)O)NC(=O)C(CC(=O)O)NC(=O)[C@@H](CNC(=O)CC[C@H](C(=O)O)N2CCN(CC(=O)O)CCN(CC(=O)O)CCN(CC(=O)O)CC2)NC(=O)C(CN)NC(=O)c2ccc([Si](F)(C(C)(C)C)C(C)(C)C)cc2)C(=O)N[C@@H](Cc2ccc(O)cc2)C(=O)NC(Cc2c[nH]c3ccccc23)C(=O)N[C@@H](CCCCN)C(=O)N[C@@H]([C@@H](C)O)C(=O)N1)C(=O)O` (some centres unmarked) [[Lu]20], the HSA in series [1] worked out at 18.76 kDa. Also, the “LogDpH=7.4” value in series [3] is −2.35 ± 0.04.
As for `C[C@@H](O)[C@H](NC(=O)C1CSSCC(NC(=O)C(Cc2ccccc2)NC(=O)CNC(=O)CNC(=O)CNC(=O)C(CC(=O)O)NC(=O)[C@@H](CC(=O)O)NC(=O)C(CNC(=O)CN2CCN(CC(=O)O)CCN(CC(=O)O)CCN(CC(=O)O)CC2)NC(=O)C[N+](C)(C)Cc2ccc([Si](F)(C(C)(C)C)C(C)(C)C)cc2)C(=O)N[C@@H](Cc2ccc(O)cc2)C(=O)NC(Cc2c[nH]c3ccccc23)C(=O)N[C@@H](CCCCN)C(=O)N[C@@H]([C@@H](C)O)C(=O)N1)C(=O)O` (some centres unmarked) [[Lu]50], the HSA in series [1] is recorded as 8.17 kDa. Further, the “LogDpH=7.4” value in series [3] is −1.79 ± 0.02.
On the same counts, the results for `C[C@@H](O)[C@H](NC(=O)C1CSSCC(NC(=O)C(Cc2ccccc2)NC(=O)CNC(=O)CNC(=O)CNC(=O)C(CC(=O)O)NC(=O)[C@@H](CC(=O)O)NC(=O)C(CNC(=O)CN2CCN(CC(=O)O)CCN(CC(=O)O)CCN(CC(=O)O)CC2)NC(=O)[C@@H](CN)NC(=O)C[N+](C)(C)Cc2ccc([Si](F)(C(C)(C)C)C(C)(C)C)cc2)C(=O)N[C@@H](Cc2ccc(O)cc2)C(=O)NC(Cc2c[nH]c3ccccc23)C(=O)N[C@@H](CCCCN)C(=O)N[C@@H]([C@@H](C)O)C(=O)N1)C(=O)O` (some centres unmarked) [[Lu]51] are 8.84 kDa and −1.71 ± 0.05.
The like results for `C[C@@H](O)[C@H](NC(=O)C1CSSCC(NC(=O)C(Cc2ccccc2)NC(=O)CNC(=O)CNC(=O)CNC(=O)C(CC(=O)O)NC(=O)[C@@H](CC(=O)O)NC(=O)C(CNC(=O)CN2CCN(CC(=O)O)CCN(CC(=O)O)CCN(CC(=O)O)CC2)NC(=O)[C@@H](CN)NC(=O)CNC(=O)C[N+](C)(C)Cc2ccc([Si](F)(C(C)(C)C)C(C)(C)C)cc2)C(=O)N[C@@H](Cc2ccc(O)cc2)C(=O)NC(Cc2c[nH]c3ccccc23)C(=O)N[C@@H](CCCCN)C(=O)N[C@@H]([C@@H](C)O)C(=O)N1)C(=O)O` (some centres unmarked) [[Lu]52] were, in that order, 8.47 kDa and −1.88 ± 0.05.
For `C[C@@H](O)[C@H](NC(=O)C1CSSCC(NC(=O)C(Cc2ccccc2)NC(=O)CNC(=O)CNC(=O)CNC(=O)C(CC(=O)O)NC(=O)[C@@H](CC(=O)O)NC(=O)C(CNC(=O)CN2CCN(CC(=O)O)CCN(CC(=O)O)CCN(CC(=O)O)CC2)NC(=O)[C@@H](CN)NC(=O)CNC(=O)CNC(=O)C[N+](C)(C)Cc2ccc([Si](F)(C(C)(C)C)C(C)(C)C)cc2)C(=O)N[C@@H](Cc2ccc(O)cc2)C(=O)NC(Cc2c[nH]c3ccccc23)C(=O)N[C@@H](CCCCN)C(=O)N[C@@H]([C@@H](C)O)C(=O)N1)C(=O)O` (some centres unmarked) [[Lu]53], in series [1], the HSA was found to be 9.81 kDa. For the same molecule, the “LogDpH=7.4” value in series [3] is recorded as −1.74 ± 0.03.
